Tests used:
ddY mice = test: Oxylipin profiling of brain regions of juvenile offspring after prenatal poly(I:C) (MIA); type: in vivo, mouse; details: juvenile offspring (P28) after prenatal poly(I:C)
Method: Administration of poly(I:C) into pregnant mice. The schedule of poly(I:C) treatment was performed as reported previously (13,36-39). The pregnant mice were injected intraperitoneally (i.p.) for six consecutive days from E12 to E17 with poly(I:C) (5.0 mg/kg/day, Sigma-Aldrich Co. Ltd., St. Louis, MO, USA) dissolved in physiological saline, or an equivalent volume (5 ml/kg) of saline. The male offspring were separated from their mothers at wearing (P21), and mice were caged each three-five in the groups in clear polycarbonate cage (22.5×33.8×14.0 cm). Mice were housed under controlled temperatures and 12-hour light/dark cycles (lights on between 07:00-19:00 h), with ad libitum food and water.
Collection of brain samples and oxylipin profiling. The pregnant mice were injected i.p. with poly(I:C) (5.0 mg/kg/day for 6 days from E12 to E17) or saline, as described above. The male offspring were separated from their mothers at wearing (P21). On P28, mice were deeply anesthetized with isoflurane and brains were removed from the skulls. For Western blot analysis, brain regions such as prefrontal cortex (PFC), striatum, CA1, CA3 and dentate gyrus (DG) of the hippocampus were dissected from brain on ice using a Leica microscope S9E (Leica Microsystems, Tokyo, Japan). The samples were stored at −80° C. before assay. For oxylipin analysis, PFC, hippocampus, and cerebellum were dissected from brain on ice, and the samples were stored at −80° C. before assay. Measurement of eicosanoids was performed at UC Davis using the previous method (57).

parvalbumin (PV) = test: PV immunohistochemistry in mPFC, offspring after MIA; type: in vivo, mouse; details: adult offspring of poly(I:C)-treated mice vs saline-treated group
Method: Immunohistochemistry. Immunohistochemistry of PV was performed as reported previously (37,39,59,60). Mice were anesthetized with 5% isoflurane and sodium pentobarbital (50 mg/kg), and perfused transcardially with 10 mL of physiological saline, followed by 40 mL of ice-cold 4% paraformaldehyde in 0.1M phosphate buffer (pH 7.4). Brains were removed from the skulls and post fixed overnight at 4° C. in the same fixative. For the immunohistochemical analysis, 50 μm-thick serial, coronal sections of brain tissue were cut in ice-cold 0.01M phosphate buffered saline (pH 7.5) using a vibrating blade microtome (VT1000s, Leica Microsystems, Tokyo, Japan). Free-floating sections were treated with 0.3% H2O2 in 50 mM Tris-HCl saline (TBS) for 30 min and were blocked in TBS containing 0.2% Triton X-100 (TBST) and 1.5% normal serum for 1 h at room temperature. […] The sections were imaged, and the staining intensity of PV (or GADO immunoreactivity in the inflalimbic (IL) and prelimbic (PrL) regions of mPFC was analyzed using a light micro-scope equipped with a CCD camera (Olympus IX70, Tokyo, Japan) and the SCION IMAGE software package. Images of sections within mPFC region were captured using a 100× objective with a Keyence BZ-X710 microscope (Keyence Corporation, Osaka, Japan).

polyriboinosinic-polyribocytidilic acid [Poly(I:C)]
5(6)-EpETrE level (ddY mice; PFC): 222.07 ± 22.38 pmol/g tissue | 6-keto-PGF1α level (ddY mice; PFC): 22.088 ± 1.785 pmol/g tissue | 8(9)-EpETrE level (ddY mice; PFC): 6.725 ± 0.892 pmol/g tissue | 9(10)-EpOME level (ddY mice; PFC): 2.695 ± 0.424 pmol/g tissue | 9,10,13-TriHOME level (ddY mice; PFC): 22.676 ± 3.814 pmol/g tissue | 9,10-DiHOME level (ddY mice; PFC): 1.069 ± 0.188 pmol/g tissue | 9,12,13-TriHOME level (ddY mice; PFC): 39.728 ± 6.854 pmol/g tissue | 9-HODE level (ddY mice; PFC): 24.253 ± 3.782 pmol/g tissue | 9-oxo-ODE level (ddY mice; PFC): 15.032 ± 2.690 pmol/g tissue | 10(11)-EpDPE level (ddY mice; PFC): 3.698 ± 0.292 pmol/g tissue | 11(12)-EpETrE level (ddY mice; PFC): 26.639 ± 3.530 pmol/g tissue | 11-HETE level (ddY mice; PFC): 72.292 ± 5.677 pmol/g tissue | 12(13)-EpOME level (ddY mice; PFC): 2.934 ± 0.435 pmol/g tissue | 12,13-DiHOME level (ddY mice; PFC): 4.640 ± 0.477 pmol/g tissue | 12-HETE level (ddY mice; PFC): 28.597 ± 2.727 pmol/g tissue | 13-HODE level (ddY mice; PFC): 31.020 ± 5.237 pmol/g tissue | 14(15)-EpETrE level (ddY mice; PFC): 30.74 ± 5.605 pmol/g tissue | 15,16-DiHODE level (ddY mice; PFC): 2.785 ± 0.414 pmol/g tissue | 15-HETE level (ddY mice; PFC): 68.997 ± 4.672 pmol/g tissue | 19,20-DiHDPE level (ddY mice; PFC): 4.319 ± 0.331 pmol/g tissue | EKODE level (ddY mice; PFC): 6.552 ± 1.725 pmol/g tissue | PGD2 level (ddY mice; PFC): 147.79 ± 9.748 pmol/g tissue | PGE2 level (ddY mice; PFC): 16.359 ± 1.175 pmol/g tissue | PGF2a level (ddY mice; PFC): 86.798 ± 6.454 pmol/g tissue | Thromboxane B2 level (ddY mice; PFC): 43.922 ± 3.349 pmol/g tissue | 5(6)-EpETrE level (ddY mice; cerebellum): 174.37 ± 11.71 pmol/g tissue | 6-keto-PGF1a level (ddY mice; cerebellum): 29.69 ± 1.379 pmol/g tissue | 8(9)-EpETrE level (ddY mice; cerebellum): 5.453 ± 0.582 pmol/g tissue | 9(10)-EpOME level (ddY mice; cerebellum): 3.076 ± 0.662 pmol/g tissue | 9,10,13-TriHOME level (ddY mice; cerebellum): 20.84 ± 3.099 pmol/g tissue | 9,10-DiHOME level (ddY mice; cerebellum): 1.283 ± 0.279 pmol/g tissue | 9,12,13-TriHOME level (ddY mice; cerebellum): 37.62 ± 5.925 pmol/g tissue | 9-HODE level (ddY mice; cerebellum): 23.33 ± 2.571 pmol/g tissue | 9-oxo-ODE level (ddY mice; cerebellum): 16.56 ± 2.802 pmol/g tissue | 10(11)-EpDPE level (ddY mice; cerebellum): 6.061 ± 0.717 pmol/g tissue | 11(12)-EpETrE level (ddY mice; cerebellum): 21.10 ± 1.869 pmol/g tissue | 12(13)-EpOME level (ddY mice; cerebellum): 2.989 ± 0.423 pmol/g tissue | 12,13-DiHOME level (ddY mice; cerebellum): 5.406 ± 0.682 pmol/g tissue | 13-HODE level (ddY mice; cerebellum): 30.47 ± 4.048 pmol/g tissue | 14(15)-EpETrE level (ddY mice; cerebellum): 26.63 ± 3.595 pmol/g tissue | 15,16-DiHODE level (ddY mice; cerebellum): 2.772 ± 0.423 pmol/g tissue | 15-HETE level (ddY mice; cerebellum): 36.59 ± 3.256 pmol/g tissue | 19,20-DiHDPE level (ddY mice; cerebellum): 9.767 ± 0.858 pmol/g tissue | EKODE level (ddY mice; cerebellum): 7.801 ± 1.325 pmol/g tissue | PGD2 level (ddY mice; cerebellum): 21.60 ± 1.774 pmol/g tissue | PGE2 level (ddY mice; cerebellum): 6.969 ± 0.684 pmol/g tissue | PGF2a level (ddY mice; cerebellum): 46.32 ± 3.830 pmol/g tissue | TXB2 level (ddY mice; cerebellum): 14.62 ± 0.876 pmol/g tissue | 12-HETE level (ddY mice; cerebellum, first of two lines printed 12-HETE (r21)): 34.19 ± 3.215 pmol/g tissue | 12-HETE level (ddY mice; cerebellum, second of two lines printed 12-HETE (r23)): 75.46 ± 28.38 pmol/g tissue | 5(6)-EpETrE level (ddY mice; hippocampus): 333.09 ± 30.68 pmol/g tissue | 6-keto-PGF1α level (ddY mice; hippocampus): 47.853 ± 3.589 pmol/g tissue | 8(9)-EpETrE level (ddY mice; hippocampus): 10.53 ± 0.809 pmol/g tissue | 9(10)-EpOME level (ddY mice; hippocampus): 3.933 ± 0.304 pmol/g tissue | 9,10,13-TriHOME level (ddY mice; hippocampus): 31.142 ± 2.301 pmol/g tissue | 9,10-DiHOME level (ddY mice; hippocampus): 0.814 ± 0.116 pmol/g tissue | 9,12,13-TriHOME level (ddY mice; hippocampus): 54.137 ± 3.954 pmol/g tissue | 9-HODE level (ddY mice; hippocampus): 34.887 ± 1.969 pmol/g tissue | 9-oxo-ODE level (ddY mice; hippocampus): 24.50 ± 1.957 pmol/g tissue | 10(11)-EpDPE level (ddY mice; hippocampus): 6.103 ± 0.347 pmol/g tissue | 11(12)-EpETrE level (ddY mice; hippocampus): 42.05 ± 3.911 pmol/g tissue | 11-HETE level (ddY mice; hippocampus): 106.263 ± 6.366 pmol/g tissue | 12(13)-EpOME level (ddY mice; hippocampus): 4.641 ± 0.393 pmol/g tissue | 12,13-DiHOME level (ddY mice; hippocampus): 4.478 ± 0.528 pmol/g tissue | 12-HETE level (ddY mice; hippocampus): 83.22 ± 12.09 pmol/g tissue | 13-HODE level (ddY mice; hippocampus): 41.916 ± 2.454 pmol/g tissue | 14(15)-EpETrE level (ddY mice; hippocampus): 45.020 ± 3.734 pmol/g tissue | 15,16-DiHODE level (ddY mice; hippocampus): 2.295 ± 0.364 pmol/g tissue | 15-HETE level (ddY mice; hippocampus): 100.514 ± 6.210 pmol/g tissue | 19,20-DiHDPE level (ddY mice; hippocampus): 4.228 ± 0.321 pmol/g tissue | EKODE level (ddY mice; hippocampus): 14.86 ± 0.949 pmol/g tissue | PGD2 level (ddY mice; hippocampus): 119.25 ± 8.999 pmol/g tissue | PGE2 level (ddY mice; hippocampus): 20.186 ± 1.410 pmol/g tissue | PGF2a level (ddY mice; hippocampus): 153.113 ± 10.00 pmol/g tissue | Thromboxane B2 level (ddY mice; hippocampus): 65.491 ± 5.906 pmol/g tissue | PV-IR in the PrL of mPFC (parvalbumin (PV)): significantly lower
